# Laboratory results reported in publication PMC6594751, “The mechanism of error induction by the antibiotic viomycin provides insight into the fidelity mechanism of translation” (eLife, 2019).
# Assays:
# mRNA translocation = details: ref Holm et al., 2016; Modolell and Vázquez, 1977; cited from earlier work
# [1] = test system: TC^H84A on 70S ribosomes displaying cognate UUC or near-cognate CUC codon; experiment: EF-Tu^H84A chase experiments (ternary complex dissociation from the A site); type: biochemical, E. coli; details: 37°C
# From the text: To address whether viomycin also stabilizes TCs in the A site during initial codon selection, we estimated the rate of dissociation of both cognate and near-cognate tRNAs in TC (TC ^H84A) with a GTPase-deficient mutant of EF-Tu (EF-Tu^H84A). In this EF-Tu mutant, an essential histidine in the G-domain has been replaced by alanine ([Daviter et al., 2003]), but formation of TC ^H84A is unhindered and the mutant TC carries out all partial reactions during initial codon selection, excluding GTP hydrolysis ([Daviter et al., 2003]; [Gromadski and Rodnina, 2004]). Initiated 70S ribosomes with f[^3H]Met-tRNA^fMet in the P site and a cognate (UUC) or near-cognate (CUC) codon in the A site were equilibrated with TC^H84A containing Phe-tRNAGAAPhe and GTP in the presence of varying concentrations of viomycin. TC^H84As were chased from the A site by addition of GTPase proficient TC, containing WT EF-Tu (EF-Tu^WT) and either Phe-tRNAGAAPhe or Leu-tRNAGAGLeu2 , whichever was cognate for the codon in the A site. The dissociation rate for TC^H84A s from the A site, defined as the inverse of the average dissociation time, was then estimated from the rate of f[^3H]Met-Phe or f[^3H]Met-Leu formation (supplementary methods).
# All experiments were performed at 37°C in HEPES-polymix buffer (95 mM KCl, 5 mM NH4Cl, 0.5 mM CaCl2, 8 mM putrescine, 1 mM spermidine, 5 mM Mg(OAc)2, 1 mM dithioerythritol and 5 mM HEPES pH 7.5). All reaction mixes contained 10 mM phosphoenolpyruvate (PEP), 1 µg/ml pyruvate kinase (PK) and 0.1 µg/ml myokinase (MK). His-tagged initiation factors IF1, IF2 and IF3, elongation factor Ts, and phenylalanine and leucine aminoacyl tRNA-synthetases were purified using nickel-affinity chromatography (HisTrap GE Healthcare). Wild-type elongation factor Tu was prepared as in [Ehrenberg et al. (1990)]. All protein concentrations were determined using the Bradford assay. Ribosomes (E. coli MRE600) and f[^3H]Met-tRNA^fMet were prepared according to [Antoun et al. (2004)]; ribosome concentration was determined spectrophotometrically. XR7 mRNAs with coding sequences AUG-UUC, AUG-CUC, AUG-UAC and AUG-UUA were prepared as in [Borg and Ehrenberg (2015)], see theGV Appendix I for full mRNA sequences. tRNA^Phe was prepared as in [Holm et al. (2016)]. [^3H]Met and [^3H]GTP were from Perkin-Elmer, viomycin was from USP, all other chemicals were from either Merck or Sigma-Aldrich.
# The wild type tufA gene from E. coli Mg1655 was cloned in the pET21b vector with a C-terminal hexahistidine tag. Using this construct, the Histidine at position 84 was changed to Alanine by following the standard protocol from the QIAGEN site directed mutagenesis kit. Successful mutation was confirmed by DNA sequencing. […]
# ribosome = details: ref Holm et al., 2016; cited from earlier work
# From the text: From these structures it seems likely that association of viomycin to the ribosome requires bases A1492 and A1493 in their flipped-out conformation and that the presence of viomycin on the ribosome will effectively block the monitoring bases from re ...
substance,measurement,setting,value
viomycin,effect on rate of mRNA translocation,mRNA translocation,reduces the rate of mRNA translocation
same,"rate of TC^H84A dissociation, cognate, 1 µM viomycin","[1]; cognate UUC codon, 1 µM viomycin (1.21 ± 0.088 in the absence of viomycin), pH 7.5",0.616 ± 0.044 s⁻¹
same,"rate of TC^H84A dissociation, cognate, 10 µM viomycin","[1]; cognate UUC codon, 10 µM viomycin (1.21 ± 0.088 in the absence of viomycin), pH 7.5",0.198 ± 0.0275 s⁻¹
same,"apparent near-cognate TC^H84A dissociation rate, 200 µM viomycin","[1]; near-cognate CUC codon, 200 µM viomycin, pH 7.5",0.209 ± 0.066 s⁻¹
same,Ki,"[1]; tRNA^Phe(GAA) reading cognate codon UUC, linear fit of Equation 6 to dissociation mean times (Figure 2B), read-out: KI^c (viomycin concentration at which rate of viomycin rebinding to TC-bound ribosome equals rate of TC dissociation unhindered by rebinding)",9.4 ± 3.3 µM
same,effect of A-site-bound tRNA on affinity of viomycin for the ribosome,ribosome,A-site-bound tRNA greatly increases the affinity of viomycin for the ribosome
